Assay results as given in patent US20250314636A1, “METHOD OF PREPARING AND EXPANDING A POPULATION OF IMMUNE CELLS FOR CANCER THERAPY, POTENCY ASSAY FOR TUMOR RECOGNITION, BIOLOGICAL VACCINE PREPARATION AND EPITOPETARGET FOR ANTIBODIES” (FUNDAÇÃO D. ANNA DE SOMMER CHAMPALIMAUD E DR. CARLOS MONTEZ …, priority 2022, published 2025).
Where two headings read alike, the source gives them in different places.

How the values were obtained:
[1] = test system: PANC-1; assay: Cellular recognition assay: allogeneic tumor cell line PANC-1; type: cell-based, human; details: CD1d restricted IFN-γ production
Protocol: All antibodies are commercially available.
siRNA against MR1 was used to silence MR1 expression using Silencer Select Pre-designed siRNA (Ambion, Thermo Fisher)). A scramble siRNA was used as negative control (Ambion, Thermo Fisher). Briefly, target cells were seeded 24 h before transfection, both siRNAs were used at 10 μM with lipofectamine RNA iMAX diluted in OptiMEM, incubated for 5 minutes, and added on top of the cells. Cells were incubated for 48 h before being used on the respective assays.
Autologous tumor, confirmed by standard histology, was viably snap frozen and then thawed to be used as targets in recognition assays once TIL had been expanded. Small autologous tumor pieces (1 mm^3) from tumor areas that contained tumor cells were tested in duplicates. TIL were incubated with tumor pieces or allogeneic tumor cells in CellGenix GMP DC media supplemented with 10% serum in the presence of IL-2 (50 IU/mL) and IL-15 (10 IU/mL) for testing MAIT—cells. TCR αβ T-cells or TCR γδ cells were tested for autologous or allogeneic tumor recognition using 100 IU IL-2/mL and 100 IU IL-15/mL; or using 100 IU IL-7/mL combined with 100 IU IL-15/mL. […]

[2] = test system: PBMCs; assay: Peptide recognition assay in PBMCs (IFN-γ in supernatant, 7 days); type: cell-based, human; details: for IFN-γ production, PBMCs: 10e4 PBMC/well co-cultured with the peptide for 7 days, supernatant tested; for PBMCs IFN-y: PBMCs harvested same day as skin lesion
Protocol: (§1) Peptides from tumor-associated antigens (TAAs), listed in Table 5 were placed at 1 ug/well in duplicates using anti-CD3 at 30 ng/mL as well as PHA at 5 μg/mL as positive controls.
(§2) The differences in TIL versus PBMCs can also be defined by peptide reactivity. 10e^4 TIL or 10e^4 PBMC/well were co-cultured with the peptides listed in Table 11 below for 7 days and the supernatants were tested for IFN-γ production.

[3] = test system: TIL; assay: Peptide recognition assay in TIL (IFN-γ ELISA / IL-17 in supernatant, 7 days); type: cell-based, human; parameters: IFN-γ production, TIL: unit not given here; details: for IFN-γ production, TIL: 10e4 TIL/well co-cultured with the peptide for 7 days, supernatant tested; for Pancreatic TIL D1599 IFN-y / Pancreatic TILD1599 IL 17: Pancreatic TIL D1599; for IFN-γ production (in words): positive controls
Protocol: as §1, §2

[4] = test system: TIL
Protocol: TIL were seeded at 10^4/well in medium with 10% human serum added 24 h later and reduced cytokine concentrations (IL-2 at 100 IU/mL, IL-15 at 100 IU/mL). Supernatants were tested for IFN-γ production with the Human IFN-γ ELISA basic kit (HRP) (Mabtech, 3420-1H-6) according to the manufacturer's instructions. The assay can also be performed using IL-7 at 100 IU/mL and 100 IU IL-15/mL).
MHC class I responses were blocked using mAb clone w6/32 (mouse IgG2a) at 10 μg/mL, anti-HLA-DR clone L243 (mouse IgG2a) at 10 μg/mL, anti-HLA-DP clone B7/21 (mouse IgG3) at 10 μg/mL, anti-CD1d clone CD1d42 (mouse IgG1) at 10 μg/mL. Isotype control antibodies included mouse IgG2a and mouse IgG1 at 10 μg/mL. MR1 responses were blocked using the mAb clone 26.5 (mouse IgG2a) at 10 μg/mL. All antibodies are commercially available.

[5] = test system: Posterior skin lesion T-cells; assay: Peptide recognition by T-cells expanded from skin lesions (IFN-γ, 7 days); type: cell-based, human; details: T-cells expanded from skin lesion of patient with solid cancer
Protocol: as §1

[6] = TIL that reacted against Human U11/U12 snRNP 35 kDa protein (81-90) tailored for HLA-B3501, + anti-ABC
[7] = TIL that reacted against Human U11/U12 snRNP 35 kDa protein (81-90) tailored for HLA-B3501, + anti-DR
[8] = TIL that reacted against Human U11/U12 snRNP 35 kDa protein (81-90) tailored for HLA-B3501, no blocking antibody
[9] = TIL that reacted against SARS-CoV-2 spike (212-220) tailored for HLA-B3501, + anti-ABC
[10] = TIL that reacted against SARS-CoV-2 spike (212-220) tailored for HLA-B3501, + anti-DR
[11] = TIL that reacted against SARS-CoV-2 spike (212-220) tailored for HLA-B3501, no blocking antibody

Molecule | IFN-γ production, PBMCs [2] | IFN-γ production, TIL [3] | other results
Cc1oncc1C(=O)Nc1ccc(C(F)(F)F)cc1 [Leflunomide] | – | – | PANC-1 recognition by γδ+ TIL after pretreatment of PANC-1 cells [1]: not changed
COc1cccc2c1C(=O)c1c(O)c3c(c(O)c1C2=O)C[C@@](O)(C(=O)CO)C[C@@H]3O[C@H]1C[C@H](N)[C@H](O)[C@H](C)O1 [doxorubicin] | – | – | PANC-1 recognition by γδ+ TIL after pretreatment of PANC-1 cells [1]: not changed
LDVLYPKARLAFQNM | 0 | 0 | –
LLPRGAPERQRLLPA | 0 | 0 | –
LP(V)RDLPQGF | – | – | IFN-γ Production [4, 6]: 2062.87; IL-17 Production [4, 6]: 12.68; IFN-γ Production [4, 7]: 1974.19; IL-17 Production [4, 7]: 257.46; IFN-γ Production [4, 8]: 2611.08; IL-17 Production [4, 8]: 238.70; IFN-γ Production [4, 9]: 138.58; IL-17 Production [4, 9]: 0.00; IFN-γ Production [4, 10]: 1057.65; IL-17 Production [4, 10]: 428.92; IFN-γ Production [4, 11]: 1457.59; IL-17 Production [4, 11]: 462.99
LP(V)RDLVTGF | – | – | IFN-γ Production [4, 6]: 1908.56; IL-17 Production [4, 6]: 81.91; IFN-γ Production [4, 7]: 1509.64; IL-17 Production [4, 7]: 444.01; IFN-γ Production [4, 8]: 2444.61; IL-17 Production [4, 8]: 330.14; IFN-γ Production [4, 9]: 879.62; IL-17 Production [4, 9]: 0.00; IFN-γ Production [4, 10]: 1289.42; IL-17 Production [4, 10]: 420.07; IFN-γ Production [4, 11]: 1230.50; IL-17 Production [4, 11]: 372.84
LQGGIPNGYLVLDLS | 0 | 0 | –
LVVVGAGAVGKSALT | 0 | 0 | –
LVVVGAGCVGKSALT | 0 | 0 | –
LVVVGAGRVGKSALT | 0 | 0 | –
LVVVGAGSVGKSALT | 0 | 0 | –
LVVVGAGVVGKSALT | 0 | 0 | –
LVVVGAVGVGKSALT | 0 | 0 | –
MALPTARPLLGSCGT | 0 | 0 | –
MQEALSGTPCLLGPG | 0 | 0 | –
OKT3: anti-CD3 directed antibody crosslinking the T-cell receptor, 30 ng/ml from Biolegend or Human Cell [reference compound] | 63 | 0 | PBMCs IFN-y ([2]; first PBMCs column): 0.0 pg/ml/7 days; PBMCs IFN-y ([2]; second PBMCs column): 0.0 pg/ml/7 days; Pancreatic TIL D1599 IFN-y [3]: 200 pg/mL; Pancreatic TILD1599 IL 17 [3]: 0 pg/mL; IFN-γ production (in words) ([3]; TIL D1599): Strong IFN-γ production; Posterior skin lesion T-cells IFN-y [5]: 27.0 pg/ml/7 days; IFN-γ Production [4, 8]: 3333.24; IL-17 Production [4, 8]: 417.70; IFN-γ Production [4, 11]: 2540.06; IL-17 Production [4, 11]: 305.99
PMVLVGNNCDLPSRT | 0 | 0 | –
PVTSLSSASTGDTTP | 0 | 0 | –
PVTSLSSVSTGDTTP | 0 | 0 | –
PVTSPSSASTGHAIP | 0 | 0 | –
PVTSPSSESTGHAIP | 0 | 0 | –
PVTSTSSASTGHATP | 0 | 0 | –

Molecule | IFN-γ production, PBMCs [2] | IFN-γ production, TIL [3] | other results
PVTSTSSVSTGHATP | 0 | 0 | –
SVSTMDALRGLLPVL | 0 | 0 | –
TLGEFLKLDRERAKN | 0 | 0 | –
TPLPVTDASSASTGH | 0 | 0 | –
TPLPVTDNSSASTGD | 0 | 0 | –
TPLPVTDTSSASTGD | 0 | 0 | –
TPLPVTDTSSASTGH | 0 | 0 | –
TTPLPVTIPSSASSG | 0 | 0 | –
TTPLPVTSPSSASSG | 0 | 0 | –
VTDASSASTGH | 0 | 0 | –
VTDTSSASTGH | 0 | 0 | –
WAVRPQDLDTCDPRQ | 0 | 0 | –
YEQLDVLKHKLDELY | 0 | 0 | –
YKLVVVGAAGVGKSALT | 0 | 0 | –
YKLVVVGACGVGKSALT | 0 | 0 | –
YKLVVVGADGVGKSALT | 0 | 0 | –
YKLVVVGAGGVGKSALT | 0 | 0 | –
YKLVVVGARGVGKSALT | 0 | 0 | –
YKLVVVGASGVGKSALT | 0 | 0 | –
YKLVVVGAVGVGKSALT | 0 | 0 | –
phytohemagglutinin [PHA, reference compound] | 71 | 1336 | PBMCs IFN-y ([2]; first PBMCs column): 165.7 pg/ml/7 days; PBMCs IFN-y ([2]; second PBMCs column): 165.7 pg/ml/7 days; Pancreatic TIL D1599 IFN-y [3]: 417 pg/mL; Pancreatic TILD1599 IL 17 [3]: 4 pg/mL; IL-17 production (in words) ([3]; positive control, TIL D1599): only limited amount of IL-17 production; IFN-γ production (in words) ([3]; TIL D1599): Strong IFN-γ production; Posterior skin lesion T-cells IFN-y [5]: 901.0 pg/ml/7 days
